In PubChem BioAssay AID294 (DTP/NCI, 2004):
“And” between values parts separate entries of the source, which are not always exact repeats. Equal values may be shown once.

System: MX-1 breast xenograft, nude mice, tumor weight change
Test: NCI In Vivo Anticancer Drug Screen. Data for tumor model Human Mammary Carcinoma MX-1 Xenograft (subcutaneous) in NU/NU Swiss (nude) mice
Conditions: endpoint: optimum tumor weight change, schedule: Q04DX003 (ip), higher = larger tumour
Procedure: The antitumor activity of compounds was measured in mice bearing transplantable tumors. Survival or tumor size were measured and the results are expressed as the measurement made in the treated group (T) divided by the measurement made in the vehicle treated control group (C). The tumor model used in this assay is Human Mammary Carcinoma MX-1 Xenograft (subcutaneous) in NU/NU Swiss (nude) mice

[1] = dose: 25.0 mg/kg/injection, vehicle: water
[2] = dose: 200.0 mg/kg/injection, vehicle: saline
[3] = dose: 50.0 mg/kg/injection, vehicle: Klucel (hydroxypropylcellulose) (HPC)
[4] = dose: 200.0 mg/kg/injection, vehicle: Klucel (hydroxypropylcellulose) (HPC)
[5] = dose: 7.5 mg/kg/injection, vehicle: saline
[6] = dose: 30.0 mg/kg/injection, vehicle: saline
[7] = dose: 60.0 mg/kg/injection, vehicle: saline
[8] = dose: 100.0 mg/kg/injection, vehicle: saline
[9] = dose: 200.0 mg/kg/injection, vehicle: suspension in saline
[10] = dose: 25.0 mg/kg/injection, vehicle: saline
[11] = dose: 50.0 mg/kg/injection, vehicle: saline
[12] = dose: 400.0 mg/kg/injection, vehicle: suspension in saline
[13] = dose: 400.0 mg/kg/injection, vehicle: saline
[14] = dose: 800.0 mg/kg/injection, vehicle: saline
[15] = dose: 1600.0 mg/kg/injection, vehicle: saline

NC(Cc1ccc(N(CCCl)CCCl)cc1)C(=O)O (stereo not given)
T/C (dose: 2.5 mg/kg/injection, vehicle: Klucel (hydroxypropylcellulose) (HPC)): 49 % of control
T/C (dose: 5.0 mg/kg/injection, vehicle: Klucel (hydroxypropylcellulose) (HPC)): 15 % of control
T/C (dose: 10.0 mg/kg/injection, vehicle: Klucel (hydroxypropylcellulose) (HPC)): -69 % of control and -81 % of control

O=C1N(Cl)C(=O)C(c2ccc(Cl)cc2)(c2ccc(Cl)cc2)N1Cl
T/C (dose: 100.0 mg/kg/injection, vehicle: saline with Tween-80): 98 % of control

Cn1cnc([N+](=O)[O-])c1[Se]c1nc(N)nc2nc[nH]c12
T/C (dose: 12.5 mg/kg/injection, vehicle: water): 103 % of control
T/C [1]: 84 % of control
T/C (dose: 50.0 mg/kg/injection, vehicle: water): 60 % of control

O=CC(S)CO (stereo not given)
T/C [2]: 61 % of control

COc1cccc2c1C(=O)c1c(O)c3c(c(O)c1C2=O)C[C@@](O)(C(C)=O)C[C@@H]3OC1CC(N)C(O)C(C)O1 (stereo not given in full)
T/C (dose: 1.0 mg/kg/injection, vehicle: saline): 72 % of control

O=[N+]([O-])/C=C\c1ccc2c(c1)OCO2
T/C [3]: 83 % of control
T/C [4]: 81 % of control

Cc1c(N)nc(C(CC(N)=O)NCC(N)C(N)=O)nc1C(=O)NC(C(=O)NC(C)C(O)C(C)C(=O)NC(C(=O)NCCc1nc(-c2nc(C(=O)NCCCNC(C)c3ccccc3)cs2)cs1)C(C)O)C(OC1OC(CO)C(O)C(O)C1OC1OC(CO)C(O)C(OC(N)=O)C1O)c1cnc[nH]1 (stereo not given)
T/C [5]: 43 % of control and 50 % of control
T/C [6]: 18 % of control and 22 % of control
T/C [7]: 17 % of control

Oc1ccc(O)cc1
T/C [8]: 110 % of control

CC(C)CCCCCCCCCCCCC(=O)NCC(=O)NC1C(C)OC(Nc2ncnc3nc[nH]c23)C(O)C1O (stereo not given)
T/C (dose: 3.13 mg/kg/injection, vehicle: distilled water + Tween-80): 102 % of control

N=C(N)SCc1c2ccccc2c(CSC(=N)N)c2ccccc12
T/C (dose: 25.0 mg/kg/injection, vehicle: suspension in saline): 83 % of control
T/C (dose: 50.0 mg/kg/injection, vehicle: suspension in saline): 123 % of control

Cc1cc(N(CCOS(C)(=O)=O)CCOS(C)(=O)=O)ccc1C=Nc1ccc(-c2nc(Cc3ccccc3)sc2C)cc1
T/C [3]: 46 % of control
T/C (dose: 100.0 mg/kg/injection, vehicle: Klucel (hydroxypropylcellulose) (HPC)): -84 % of control
T/C [4]: -73 % of control

C=CC(=O)NCNC(=O)C=C
T/C (dose: 100.0 mg/kg/injection, vehicle: suspension in saline): 101 % of control
T/C [9]: 84 % of control

N[C@H](C(=O)O)[C@@H]1CC(Cl)=NO1
T/C [10]: 19 % of control
T/C [11]: 12 % of control
T/C [8]: 5 % of control
T/C [2]: 1 % of control

OCC1OC(n2cnc3cncnc32)C(O)C1O (stereo not given)
T/C (dose: 12.5 mg/kg/injection, vehicle: saline): 88 % of control
T/C [10]: 94 % of control
T/C [11]: 108 % of control

CCCCNCCCNCCCNC(=O)c1csc(-c2csc(CCNC(=O)C(NC(=O)C(C)C(O)C(C)NC(=O)C(NC(=O)c3nc(C(CC(N)=O)NCC(N)C(N)=O)nc(N)c3C)C(OC3OC(CO)C(O)C(O)C3OC3OC(CO)C(O)C(OC(N)=O)C3O)c3cnc[nH]3)C(C)O)n2)n1 (stereo not given)
T/C [5]: 49 % of control and 57 % of control
T/C [6]: 29 % of control (2×) and 49 % of control
T/C [7]: 5 % of control and 12 % of control and 18 % of control
T/C (dose: 120.0 mg/kg/injection, vehicle: saline): 2 % of control

CN(C)C=O
T/C [12]: 44 % of control
T/C (dose: 800.0 mg/kg/injection, vehicle: suspension in saline): 53 % of control
T/C (dose: 1600.0 mg/kg/injection, vehicle: suspension in saline): 57 % of control

COc1cccc2c1C(=O)c1c(O)c3c(c(O)c1C2=O)C[C@@](O)(C(=O)CO)C[C@@H]3OC1CC(N)C(O)C(C)O1 (stereo not given in full)
T/C (dose: 1.0 mg/kg/injection, vehicle: water): 97 % of control

COc1cc([C@@H]2c3cc4c(c(O)c3C[C@H]3COC(=O)[C@@H]32)OCO4)cc(OC)c1OC
T/C (dose: 2.5 mg/kg/injection, vehicle: saline): 113 % of control
T/C (dose: 5.0 mg/kg/injection, vehicle: saline): 64 % of control
T/C (dose: 10.0 mg/kg/injection, vehicle: saline): 112 % of control

CC(C)=CCNc1ncnc2c1ncn2C1OC(CO)C(O)C1O (stereo not given)
T/C [9]: 39 % of control
T/C [12]: 77 % of control

CC(=O)OCC(=O)[C@@]12OC(C)(C)O[C@@H]1C[C@H]1[C@@H]3CC(C=O)=C4C=C(OCCCl)CC[C@]4(C)[C@@]3(F)[C@@H](O)C[C@@]12C
T/C [3]: 54 % of control

C[C@]12CC[C@@H]3c4ccc(OC(=O)Cc5ccc(N(CCCl)CCCl)cc5)cc4CC[C@H]3[C@@H]1CC[C@@H]2OC(=O)Cc1ccc(N(CCCl)CCCl)cc1
T/C (dose: 800.0 mg/kg/injection, vehicle: saline with Tween-80): 50 % of control

Nc1cc2[nH]cnc2c(=O)[nH]1
T/C [11]: 58 % of control
T/C [8]: 87 % of control
T/C [2]: 59 % of control

CNC=O
T/C [2]: 7 % of control and 29 % of control
T/C [13]: -1 % of control and 17 % of control
T/C [14]: -12 % of control
T/C [15]: -64 % of control

O=C(O)CP(=O)(O)O
T/C [2]: 87 % of control
T/C [13]: 69 % of control
T/C [14]: 48 % of control
T/C [15]: 50 % of control

CN1CCN(CCCN2c3ccccc3Sc3ccc(C(F)(F)F)cc32)CC1
T/C [11]: 58 % of control

O=C/C(Cl)=C(/Cl)C(=O)O
T/C (dose: 12.5 mg/kg/injection, vehicle: saline with Tween-80): 96 % of control

N=C(N)Sc1ccccn1
T/C [11]: 106 % of control
T/C [8]: 77 % of control
T/C [2]: 60 % of control

CN1N=C(N)c2cn(C3OC(COP(=O)(O)O)C(O)C3O)c3ncnc1c23 (stereo not given)
T/C [1]: 102 % of control

O=Cc1ccc(O)c(O)c1
T/C (dose: 50.0 mg/kg/injection, vehicle: saline with Tween-80): 63 % of control
T/C (dose: 400.0 mg/kg/injection, vehicle: saline with Tween-80): 89 % of control

COc1cccc2c1C(=O)c1c(O)c3c(c(O)c1C2=O)C[C@@](O)(/C(C)=N\O)C[C@@H]3OC1CC(N)C(O)C(C)O1 (stereo not given in full)
T/C [10]: 66 % of control
